US20190255091A1, “RNAi AGENTS FOR [sequence] B VIRUS INFECTION” (priority 2016, published 2019)

Columns and labels:
Hepatitis B Virus (HBV) [1] = test: Serum HBV DNA levels in pHBV model mice (qPCR); assay type: in vivo; details: single s.c. injection day 1, Example 7
Excerpt: (§1) Six to eight-week-old female NOD.CB17-Prkdscid/NcrCrl (NOD-SCID) mice were transiently transfected in vivo with MC-HBV1.3 by hydrodynamic tail vein injection (Yang P L et al. “Hydrodynamic injection of viral DNA: a mouse model of acute hepatitis B virus infection,” PNAS USA 2002 Vol. 99: p. 13825-13830), administered 30 to 45 days prior to administration of an HBV RNAi agent or control. MC-HBV1.3 is a plasmid-derived minicircle that contains the same terminally redundant human hepatitis B virus sequence HBV1.3 as in plasmid pHBV1.3 and in the HBV1.3.32 transgenic mice (GenBank accession #V01460) (Guidotti L G et al., “High-level hepatitis B virus replication in transgenic mice,” J Virol 1995 Vol. 69, p 6158-6169.). 5 or 10 μg MC-HBV1.3 in Ringer's Solution in a total volume of 10% of the animal's body weight was injected into mice via tail vein to create pHBV model of chronic HBV infection. The solution was injected through a 27-gauge needle in 5-7 seconds as previously described (Zhang G et al., “High levels of foreign gene expression in hepatocytes after tail vein injection of naked plasmid DNA.” Human Gene Therapy 1999 Vol. 10, p 1735-1737.). At pre-dose (either day 1 pre-dose, day −1, or day −2), Hepatitis B surface antigen (HBsAg) HBsAg expression levels in serum were measured by ELISA and the mice were grouped according to average HBsAg expression levels.
(§2) HBV expression levels were normalized to pre-administration expression levels and to control mice injected with phosphate buffered saline (“PBS”).
Equal volumes of serum from mice in a group or subgroup were pooled to a final volume of 100 μL. DNA was isolated from serum samples using the QIAamp MinElute Virus Spin Kit (Qiagen, Valencia, Calif.) following the manufacturer's instructions. Sterile 0.9% saline was added to each sample to a final volume of 200 μL. Serum samples were added to tubes containing buffer and protease. Carrier RNA was added to aid in the isolation of small amounts of DNA. […] After incubating 15 min at 56° C., nucleic acids were precipitated from the lysates with ethanol and the entire solution applied to a column. After washing, the samples were eluted into a volume of 50 μL Buffer AVE.
The number of copies of HBV genomes in DNA isolated from the pHBV mouse model serum was determined by qPCR. Plasmid pSEAP-HBV353-777, encoding a short segment of the HBV genome within the S gene (bases 353-777 of GenBank accession #V01460), was used to create a six log standard curve. Samples with recovery of DNA below 2 standard deviations from the average, based on detection of pHCR/UbC-SEAP were omitted. TaqMan chemistry-based primers and probes with fluor/ZEN/IBFQ are utilized.
qPCR assays were performed on a 7500 Fast or StepOne Plus Real-Time PCR system (Life Technologies). For evaluation of HBV DNA in serum, DNA was isolated from singlet or duplicate purification steps from pooled group serum samples. Quantitations of HBV DNA and recovery control plasmid were determined by qPCR reactions performed in triplicate. The probes to quantitate HBV and pHCR/UbC-SEAP were included in each reaction.

Hepatitis B Virus (HBV) [2] = test: Serum HBeAg levels in pHBV model mice (ELISA); assay type: in vivo; details: single s.c. injection day 1, Example 7; for Average HBeAg levels normalized to pre-treatment and PBS control: pooled serum
Excerpt: as §1, §2
HBeAg analysis was performed with the HBeAg enzyme linked immunosorbent assay (ELISA) as described by the manufacturer (DiaSorin) using serum diluted 4- to 20-fold in 5% nonfat dry milk. The amount of antigen was determined in the linear range of the assay and quantitated against HBeAg protein standards (Fitzgerald Industries International, catalog #30-AH18, Acton, Mass.).
HBeAg expression for each animal was normalized to the control group of mice injected with PBS in order to account for the non-treatment related decline in expression of MC-HBV1.3. For evaluation of HBeAg in serum, HBeAg is analyzed from pooled group or subgroup serum samples. First, the HBeAg level for each pooled group or subgroup was divided by the pre-treatment level of expression in the same group or subgroup in order to determine the ratio of expression “normalized to pre-treatment”. Expression at a specific time point was then normalized to the control group by dividing the “normalized to pre-treatment” ratio for a group or subgroup by the average “normalized to pre-treatment” ratio of all samples from the normal PBS control group.

AD04776: HBV RNAi agent duplex AM05850-AS/AM06150-SS (antisense UACCAAUUUAUGCCUACAGCC; sense GGCUGUAGGCAUAAAUUGGUA; chemistry not fully specified)
Average Serum HBV DNA levels normalized to pre-treatment and PBS control (Hepatitis B Virus (HBV) [1]; Day 8, 1.0 mg/kg): 0.601 ± 0.388 | Average Serum HBV DNA levels normalized to pre-treatment and PBS control (Hepatitis B Virus (HBV) [1]; Day 8, 2.0 mg/kg): 0.363 ± 0.128 | Average Serum HBV DNA levels normalized to pre-treatment and PBS control (Hepatitis B Virus (HBV) [1]; Day 8, 4.0 mg/kg): 0.224 ± 0.150 | Average Serum HBV DNA levels normalized to pre-treatment and PBS control (Hepatitis B Virus (HBV) [1]; Day 15, 1.0 mg/kg): 0.319 ± 0.125 | Average Serum HBV DNA levels normalized to pre-treatment and PBS control (Hepatitis B Virus (HBV) [1]; Day 15, 2.0 mg/kg): 0.374 ± 0.197 | Average Serum HBV DNA levels normalized to pre-treatment and PBS control (Hepatitis B Virus (HBV) [1]; Day 15, 4.0 mg/kg): 0.263 ± 0.185 | Average Serum HBV DNA levels normalized to pre-treatment and PBS control (Hepatitis B Virus (HBV) [1]; Day 22, 1.0 mg/kg): 0.279 ± 0.138 | Average Serum HBV DNA levels normalized to pre-treatment and PBS control (Hepatitis B Virus (HBV) [1]; Day 22, 2.0 mg/kg): 0.275 ± 0.146 | Average Serum HBV DNA levels normalized to pre-treatment and PBS control (Hepatitis B Virus (HBV) [1]; Day 22, 4.0 mg/kg): 0.335 ± 0.204 | Average Serum HBV DNA levels normalized to pre-treatment and PBS control (Hepatitis B Virus (HBV) [1]; Day 29, 1.0 mg/kg): 0.506 ± 0.525 | Average Serum HBV DNA levels normalized to pre-treatment and PBS control (Hepatitis B Virus (HBV) [1]; Day 29, 2.0 mg/kg): 0.385 ± 0.141 | Average Serum HBV DNA levels normalized to pre-treatment and PBS control (Hepatitis B Virus (HBV) [1]; Day 29, 4.0 mg/kg): 0.449 ± 0.108 | Average Serum HBV DNA levels normalized to pre-treatment and PBS control (Hepatitis B Virus (HBV) [1]; Day 36, 1.0 mg/kg): 0.444 ± 0.407 | Average Serum HBV DNA levels normalized to pre-treatment and PBS control (Hepatitis B Virus (HBV) [1]; Day 36, 2.0 mg/kg): 0.721 ± 0.043 | Average Serum HBV DNA levels normalized to pre-treatment and PBS control (Hepatitis B Virus (HBV) [1]; Day 36, 4.0 mg/kg): 0.603 ± 0.068 | Average HBeAg fold knockdown normalized to pre-treatment and PBS control (Hepatitis B Virus (HBV) [2]; Day 8, 1.0 mg/kg): 2.6 Fold KD | Average HBeAg levels normalized to pre-treatment and PBS control (Hepatitis B Virus (HBV) [2]; Day 8, 1.0 mg/kg): 0.381 | Average HBeAg fold knockdown normalized to pre-treatment and PBS control (Hepatitis B Virus (HBV) [2]; Day 8, 2.0 mg/kg): 3.6 Fold KD | Average HBeAg levels normalized to pre-treatment and PBS control (Hepatitis B Virus (HBV) [2]; Day 8, 2.0 mg/kg): 0.275 | Average HBeAg fold knockdown normalized to pre-treatment and PBS control (Hepatitis B Virus (HBV) [2]; Day 8, 4.0 mg/kg): 5.2 Fold KD | Average HBeAg levels normalized to pre-treatment and PBS control (Hepatitis B Virus (HBV) [2]; Day 8, 4.0 mg/kg): 0.193 | Average HBeAg fold knockdown normalized to pre-treatment and PBS control (Hepatitis B Virus (HBV) [2]; Day 15, 1.0 mg/kg): 2.7 Fold KD | Average HBeAg levels normalized to pre-treatment and PBS control (Hepatitis B Virus (HBV) [2]; Day 15, 1.0 mg/kg): 0.368 | Average HBeAg fold knockdown normalized to pre-treatment and PBS control (Hepatitis B Virus (HBV) [2]; Day 15, 2.0 mg/kg): 3.9 Fold KD | Average HBeAg levels normalized to pre-treatment and PBS control (Hepatitis B Virus (HBV) [2]; Day 15, 2.0 mg/kg): 0.255 | Average HBeAg fold knockdown normalized to pre-treatment and PBS control (Hepatitis B Virus (HBV) [2]; Day 15, 4.0 mg/kg): 4.7 Fold KD | Average HBeAg levels normalized to pre-treatment and PBS control (Hepatitis B Virus (HBV) [2]; Day 15, 4.0 mg/kg): 0.213 | Average HBeAg fold knockdown normalized to pre-treatment and PBS control (Hepatitis B Virus (HBV) [2]; Day 22, 1.0 mg/kg): 2.8 Fold KD | Average HBeAg levels normalized to pre-treatment and PBS control (Hepatitis B Virus (HBV) [2]; Day 22, 1.0 mg/kg): 0.355 | Average HBeAg fold knockdown normalized to pre-treatment and PBS control (Hepatitis B Virus (HBV) [2]; Day 22, 2.0 mg/kg): 2.7 Fold KD | Average HBeAg levels normalized to pre-treatment and PBS control (Hepatitis B Virus (HBV) [2]; Day 22, 2.0 mg/kg): 0.370 | Average HBeAg fold knockdown normalized to pre-treatment and PBS control (Hepatitis B Virus (HBV) [2]; Day 22, 4.0 mg/kg): 3.8 Fold KD | Average HBeAg levels normalized to pre-treatment and PBS control (Hepatitis B Virus (HBV) [2]; Day 22, 4.0 mg/kg): 0.260 | Average HBeAg fold knockdown normalized to pre-treatment and PBS control (Hepatitis B Virus (HBV) [2]; Day 29, 1.0 mg/kg): 1.8 Fold KD | Average HBeAg levels normalized to pre-treatment and PBS control (Hepatitis B Virus (HBV) [2]; Day 29, 1.0 mg/kg): 0.564 | Average HBeAg fold knockdown normalized to pre-treatment and PBS control (Hepatitis B Virus (HBV) [2]; Day 29, 2.0 mg/kg): 2.0 Fold KD | Average HBeAg levels normalized to pre-treatment and PBS control (Hepatitis B Virus (HBV) [2]; Day 29, 2.0 mg/kg): 0.495 | Average HBeAg fold knockdown normalized to pre-treatment and PBS control (Hepatitis B Virus (HBV) [2]; Day 29, 4.0 mg/kg): 3.3 Fold KD | Average HBeAg levels normalized to pre-treatment and PBS control (Hepatitis B Virus (HBV) [2]; Day 29, 4.0 mg/kg): 0.307 | Average HBeAg fold knockdown normalized to pre-treatment and PBS control (Hepatitis B Virus (HBV) [2]; Day 36, 1.0 mg/kg): 2.1 Fold KD | Average HBeAg levels normalized to pre-treatment and PBS control (Hepatitis B Virus (HBV) [2]; Day 36, 1.0 mg/kg): 0.483 | Average HBeAg fold knockdown normalized to pre-treatment and PBS control (Hepatitis B Virus (HBV) [2]; Day 36, 2.0 mg/kg): 2.2 Fold KD | Average HBeAg levels normalized to pre-treatment and PBS control (Hepatitis B Virus (HBV) [2]; Day 36, 2.0 mg/kg): 0.449 | Average HBeAg fold knockdown normalized to pre-treatment and PBS control (Hepatitis B Virus (HBV) [2]; Day 36, 4.0 mg/kg): 2.2 Fold KD | Average HBeAg levels normalized to pre-treatment and PBS control (Hepatitis B Virus (HBV) [2]; Day 36, 4.0 mg/kg): 0.464
